Data on 6 compounds can be found in patent publication EP0656889B1, “9-CHLOROPROSTAGLANDIN ESTERS AND AMIDES AND THEIR USE IN THE PREPARATION OF DRUGS” (SCHERING AKTIENGESELLSCHAFT, priority 1992, dated 1994).

Assay [1] has as its system Hairless Ratten. In words: Measurement of skin blood flow (laser Doppler flowmeter) after topical application, Beispiel 12. It is filed as in vivo. The conditions noted are these: topical on abdomen of anaesthetised female hairless rats, solvent 5% Isopropylmyristat in Ethanol, measured 2 and 4 h after application (time not given). The protocol: (§1) Messung der Hautdurchblutung
Hairless Ratten (weiblich) werden gewogen (200-250g), mit 0,5ml 25% Urethan in 0,9% NaCl /100g/kg (2/3 i.p., 1/3 s.c.) narkotisiert und auf eine vorgeheizte Wärmeplatte der Fa. Jowitherm gelegt.
Auf dem Abdomen wird eine kreisförmige Fläche von 34mm Durchmesser ca. 2cm unterhalb der Sternumspitze markiert. Pro Tier wird eine Testsubstanz appliziert, die mit dem Randomisierungsprogramm RDRK zugeordnet wurde. Als Lösungsmittel wird 5% Isopropylmyristat in Ethanol verwendet. […] der jeweiligen Testlösung werden mit einer Eppendorf-Pipette gleichmäßig aufgetragen. Danach wird die behandelte Haut nochmals in drei Meßflächen von jeweils 18mm Druchmesser unterteilt und markiert. Die Hautdurchblutung wird 2 und 4 Stunden ( und gegebenenfalls 6 Stunden) nach der Applikation mit einem Laser Doppler Flowmeter (Firma Perimed) gemessen. Es werden an jedem Tier Dreifachmessungen an den markierten Stellen durchgeführt.

Assay [2] relates to haarlosen Ratten. In words: Measurement of skin blood flow (non-invasive laser Doppler method) after topical application, Beispiel 13. Conditions: 4 h after local application on abdominal skin of anaesthetised (Urethan) hairless rats, solvent Isopropylmyristat in Ethanol 5/95 v/v. It is filed as in vivo, Ratten (Wister; hairless ).
Excerpt: as §1
Die Hautdurchblutung wurde mit der nichtinvasiven Laser-Doppler Methode bestimmt. Die Messsungen wurden 4 Stunden nach der lokalen Applikation der Substanzen auf der Bauchhaut von narkotisierten ( Urethan ) haarlosen Ratten* durchgeführt. Als Lösungsmittel wurde Isopropylmyristat in Ethanol verwendet ( 5/95; v/v ).
* Für diese Untersuchungen wurden weibliche Ratten (Wister; hairless ) mit einem Körpergewicht von 200-250g verwendet.

The mark [3] stands for this setting: applied concentration 0,001 Prozent.
Where [4] appears, read: applied concentration 0,003 Prozent.

As for `O=C(COC/C=C\C[C@@H]1[C@@H](/C=C/[C@@H](O)C2CCCCC2)[C@H](O)C[C@H]1Cl)OCC(=O)c1ccccc1` [Beispiel 3, (5Z,13E)-(9R,11R,15S)-9-Chlor-3-oxa-15-cyclohexyl-11,15-dihydroxy-16,17,18,19,20-pentanor-5,13-prostadiensäurephenacylester], the “Steigerung der Hautdurchblutung in Prozent” value in assay [1] (setting [3]) amounted to 139 Prozent; in assay [1] (setting [4]), 146 Prozent.

`CCOC(=O)COC/C=C\C[C@@H]1[C@@H](/C=C/[C@@H](O)C2CCCCC2)[C@H](O)C[C@H]1Cl` [Beispiel 9, (5Z,13E)-(9R,11R,15S)-9-Chlor-3-oxa-15-cyclohexyl-11,15-dihydroxy-16,17,18,19,20-pentanor-5,13-prostadiensäureethylester]: the “Steigerung der Hautdurchblutung in Prozent” value in assay [2] (setting [3]) is on record as 200 Prozent; in assay [2] (setting [4]), 325 Prozent.

`CC(C)OC(=O)COC/C=C\C[C@@H]1[C@@H](/C=C/[C@@H](O)C2CCCCC2)[C@H](O)C[C@H]1Cl` [Beispiel 10, (5Z,13E)-(9R,11R,15S)-9-Chlor-3-oxa-15-cyclohexyl-11,15-dihydroxy-16,17,18,19,20-pentanor-5,13-prostadiensäureisopropylester]: the “Steigerung der Hautdurchblutung in Prozent” value in assay [2] (setting [3]) is 232 Prozent; in assay [2] (setting [4]), 307 Prozent.

With `O=C(CCC/C=C\C[C@@H]1[C@@H](/C=C/[C@@H](O)C2CCCCC2)[C@H](O)C[C@H]1Cl)OCC(=O)c1ccccc1` [Beispiel 1, (5Z,13E)-(9R,11R,15S)-9-Chlor-15-cyclohexyl-11,15-dihydroxy-16,17,18,19,20-pentanor-5,13-prostadiensäurephenacylester], the figures for the “Steigerung der Hautdurchblutung in Prozent” value in assay [1] (setting [3]) and in assay [1] (setting [4]) were 50 Prozent and 160 Prozent, respectively.

On to `CCOC(=O)CCC/C=C\C[C@@H]1[C@@H](/C=C/[C@@H](O)C2CCCCC2)[C@H](O)C[C@H]1Cl` [Beispiel 6, (5Z,13E)-(9R,11R,15S)-9-Chlor-15-cyclohexyl-11,15-dihydroxy-16,17,18,19,20-pentanor-5,13-prostadiensäureethylester], for which the “Steigerung der Hautdurchblutung in Prozent” value amounted to 115 Prozent in assay [2] (setting [3]) and 197 Prozent in assay [2] (setting [4]).

Take `CC(C)OC(=O)CCC/C=C\C[C@@H]1[C@@H](/C=C/[C@@H](O)C2CCCCC2)[C@H](O)C[C@H]1Cl` [Beispiel 7, (5Z,13E)-(9R,11R,15S)-9-Chlor-15-cydohexyl-11,15-dihydroxy-16,17,18,19,20-pentanor-5,13-prostadiensäureisopropylester]: the “Steigerung der Hautdurchblutung in Prozent” value turned out to be 93 Prozent in assay [2] (setting [3]) and 183 Prozent in assay [2] (setting [4]).
